Measurements as given in patent US5206239A, “Pyrroloazepine derivatives” (Suntory Limited, priority 1990, dated 1993).
Where two headings read alike, the source gives them in different places.

Legend:
[1] = Anti-serotonin action (anti-5-HT action): inhibition of serotonin-induced phasic contraction of isolated guinea pig superior mesenteric artery; parameters: species or system guinea pig (Hartley, male); details: phasic contraction induced by 10^-5 M serotonin = 100%, read-out: Anti 5-HT action (percent contraction, % of Control); for remaining activity at 1 µM: 10^-6 M test drug; for remaining activity at 0.1 µM: 10^-7 M test drug
Description: (§1) With respect to the compounds of the present invention, their anti-α1 action and anti-serotonin action were investigated by the testing methods which will be described below.
Taking the phasic contraction induced by 10^-5 M serotonin as 100%, the percent contractions in the presence of each test drug at 10^-7 and 10^-6 M were determined as anti-5-HT action.

α1 = experiment: Anti-α1 action: inhibition of norepinephrine-induced tonic contraction of isolated guinea pig thoracic aorta; parameters: species or system guinea pig (Hartley, male); details: tonic contraction induced by 10^-5 M norepinephrine = 100%
Description: as §1
The thoracic aorta of each Hartley male guinea pig (body weight: 300-500 g) was excised. […] Taking the tonic contraction induced by 10^-5 M norepinephrine (NE) as 100%, the percent contractions upon addition of each test drug at 10^-8 and 10^-7 M were determined as anti-α1 action.

Structure (SMILES)	remaining activity at 1 µM [1] [%]	remaining activity at 0.1 µM [1] [%]	Anti α1 action (percent contraction, % of Control) (α1; 10^-7 M test drug, 0.1 µM)	Anti α1 action (percent contraction, % of Control) (α1; 10^-8 M test drug, 0.01 µM)	remaining activity at 1 µM ([1]; guinea pig) [%]	remaining activity at 0.1 µM ([1]; guinea pig) [%]
CC(=O)ON=C1CCN(C)C(=O)c2c1ccn2CCCCN1CCC(C(=O)c2ccc(F)cc2)CC1 [Compound No. 91, 4-acetoxyimino-1-[4-[4-(4-fluorobenzoyl)piperidin-1-yl)butyl]-7-methyl-6,7-dihydropyrrolo[2,3-c]azepin-8(1H,5H)-one]	10.3	16.1	35.5 % of Control	58.2 % of Control	–	–
CN1CCC(=NO)c2ccn(CCCCN3CCC(C(=O)c4ccc(F)cc4)CC3)c2C1=O.Cc1ccc(S(=O)(=O)O)cc1 [Compound No. 62, 1-[4-[4-(4-fluorobenzoyl)piperidin-1-yl]butyl]-4-hydroxyimino-7-methyl-6,7-dihydropyrrolo[2,3-c]azepin-8(1H,5H)-one p-toluenesulfonate]	–	–	17.1 % of Control	26.8 % of Control	8.2	47.4
O=C1CCNC(=O)c2c1ccn2CCCCN1CCC(C(=O)c2ccc(F)cc2)CC1 [Compound No. 81, 1-[4-[4-(4-Fluorobenzoyl)piperidin-1-yl]butyl]-6,7-dihydropyrrolo[2,3-c]azepine-4,8(1H,5H)-dione]	14.3	57.1	28.9 % of Control	57.5 % of Control	–	–
O=C1CCN(Cc2ccccc2)C(=O)c2c1ccn2CCCCN1CCC(c2ccccc2)CC1 [Compound No. 48, 7-Benzyl-1-[4-(4-phenylpiperidin-1-yl)butyl]-6,7-dihydropyrrolo[2,3-c]azepine-4,8(1H,5H)-dione]	49	88	37.7 % of Control	77.4 % of Control	–	–
O=C(c1ccc(F)cc1)C1CCN(CCCCn2ccc3c2C(=O)N(Cc2ccccc2)CCC3=NO)CC1 [Compound No. 66]	6.9	77.6	10.4 % of Control	19.3 % of Control	–	–
CN1CCC(=NOC(=O)c2ccccc2)c2ccn(CCCCN3CCC(C(=O)c4ccc(F)cc4)CC3)c2C1=O [Compound No. 92, 4-benzoyloxyimino-1-[4-[4-(4-fluorobenzoylpiperidin)-1-yl]butyl]-7-methyl-6,7-dihydropyrrolo[2,3-c]azepin-8(1H,5H)-one]	12.5	48.5	21.5 % of Control	49.3 % of Control	–	–
CCN1CCC(=NO)c2ccn(CCCCN3CCC(C(=O)c4ccc(F)cc4)CC3)c2C1=O [Compound No. 65, 7-ethyl-1-[4-[4-(4-fluorobenzoyl)-piperidin-1-yl]butyl]-4-hydroxyimino-6,7-dihydro-pyrrolo[2,3-c]azepin-8-(1H,5H)-one]	3.6	19.9	9.9 % of Control	19.5 % of Control	–	–
CCCN1CCC(=NO)c2ccn(CCCCN3CCC(C(=O)c4ccc(F)cc4)CC3)c2C1=O [Compound No. 75, 1-[4-[4-(4-Fluorobenzoyl)piperidin-1-yl]butyl]-4-hydroxyimino-7-propyl-6,7-dihydropyrrolo[2,3-c]-azepin-8(1H,5H)-one]	8.2	12.9	17.9 % of Control	37.0 % of Control	–	–
CN1CCC(=NO)c2ccn(CCCCN3CCC(Oc4ccc(F)cc4)CC3)c2C1=O [Compound No. 84, 1-[4-[4-(4-Fluorophenoxy)piperidin-1-yl]butyl]-4-hydroxyimino-7-methyl-6,7-dihydropyrrolo[2,3-c]-azepin-8(1H,5H)-one]	3.8	60	67.0 % of Control	86.5 % of Control	–	–
CN1CCC(=O)c2ccn(CCCCN3CCC(C(=O)c4ccc(F)cc4)CC3)c2C1=O [Compound No. 60, 1-[4-[4-(4-fluorobenzoyl)piperidin-1-yl]butyl]-7-methyl-6,7-dihydropyrrolo[2,3-c]azepine-4,8(1H,5H)-dione]	–	–	20.5 % of Control	43.9 % of Control	11.8	62.9
CN1CCC(=NO)c2ccn(CCCCN3CCC(c4ccccc4)CC3)c2C1=O [Compound No. 51, 4-hydroxyimino-7-methyl-1-[4-(4-phenylpiperidin-1-yl)butyl]-6,7-dihydropyrrolo-[2,3-c]azepin-8(1H,5H)-one]	54.4	84.4	30.8 % of Control	74.9 % of Control	–	–
CN1CCC(=NO)c2ccn(CCCCN3CCC(C(=O)c4ccc(F)cc4)CC3)c2C1=O [Compound No. 61, 1-[4-[4-(4-fluorobenzoyl)piperidin-1-yl]butyl]-4-hydroxyimino-7-methyl-6,7-dihydropyrrolo[2,3-c]azepin-8-(1H,5H)-one]	4.1	12.1	21.4 % of Control	44.7 % of Control	–	–
CN1CCC(=O)c2ccn(CCCCN3CCC(C(O)(c4ccc(F)cc4)c4ccc(F)cc4)CC3)c2C1=O [Compound No. 54, 1-[4-[4-[Bis(4-fluorophenyl)hydroxymethyl]-piperidin-1-yl]butyl]-7-methyl-6,7-dihydropyrrolo[2,3-c]azepine-4,8(1H,5H)-dione]	14.7	62.9	26.0 % of Control	90.4 % of Control	–	–
